Measurements taken from US11415579B2, “Assay for measuring a rate of reaction between a target and a ligand candidate” (Imperial College Innovations Ltd., priority 2016, dated 2022).

Tests used:
Cdk2(H71C) (C177A) = target: T1, Cdk2(H71C) (C177A) (Homo sapiens, UniProt P24941, C177A/H71C); test: Kinetic thiol consumption assay with Cdk2 mutant H71C; type: binding; set-up: key to Rate enhancement, Cdk2 H71C: rate constant with Cdk2 ÷ rate constant with model thiol (fold); conditions: additional mutation C177A; for Rate constant with Cdk2 H71C: Protein: Cdk2, cysteine position H71C, in h^-1
T1 construct: poly-histidine; made in house; host or cells: E. coli
Experimental: (§1) To wells containing 150 μL thiol (Cdk2 or model thiol) (5 μM) in degassed phosphate buffer (pH 8) was added immobilized TCEP beads (2% v/v).
(§2) After incubation of the fluorescence plates for 1 hour at room temperature, fluorescence measurements (excitation/emission of 380/470 nm) were taken on a PerkinElmer EnVision multilabel plate reader and processed with EnVision Workstation version 1.12.
(§3) Fluorescence measurements were normalized against a DMSO/thiol only control and plotted against time.
(§4) Rate constants were calculated using GraphPad software Prism version 6 by fitting a first order exponential decay to the data. The rate constant for each acrylamide with Cdk2 was divided by the rate constant for that fragment with the model thiol to provide the rate enhancement for each ligand candidate.
(§5) A further set of set of additional Cdk2 mutants were screened, all containing the C177A mutation and therefore with only one cysteine on the surface: • F80C (without the K278C mutation) • H71C • S276C • N272 • T182C • R122C • S181C
(§6) Mutations were introduced by site-directed mutagenesis and the resulting cDNA was cloned into the pRSETA bacterial expression vector to generate a poly-histidine tagged Cdk2 fusion that was purified from E. coli using standard techniques.

Cdk2(R122C) (C177A) = target: T2, Cdk2(R122C) (C177A) (Homo sapiens, UniProt P24941, C177A/R122C); test: Kinetic thiol consumption assay with Cdk2 mutant R122C; type: binding; set-up: key to Rate enhancement, Cdk2 R122C: rate constant with Cdk2 ÷ rate constant with model thiol (fold); conditions: additional mutation C177A; for Rate constant with Cdk2 R122C: Protein: Cdk2, cysteine position R122C, in h-1
T2 construct: poly-histidine; made in house; host or cells: E. coli
Experimental: as §1, §2, §3, §4, §5, §6

Cdk2(T182C) (C177A) = target: T3, Cdk2(T182C) (C177A) (Homo sapiens, UniProt P24941, C177A/T182C); test: Kinetic thiol consumption assay with Cdk2 mutant T182C; type: binding; set-up: key to Rate enhancement, Cdk2 T182C: rate constant with Cdk2 ÷ rate constant with model thiol (fold); conditions: additional mutation C177A; for Rate constant with Cdk2 T182C: Protein: Cdk2, cysteine position T182C, in h^-1
T3 construct: poly-histidine; made in house; host or cells: E. coli
Experimental: as §1, §2, §3, §4, §5, §6

Cdk2(N272C) (C177A) = target: T4, Cdk2(N272C) (C177A) (Homo sapiens, UniProt P24941, C177A/N272C); test: Kinetic thiol consumption assay with Cdk2 mutant N272C; type: binding; set-up: key to Rate enhancement, Cdk2 N272: rate constant with Cdk2 ÷ rate constant with model thiol (fold); conditions: for Rate enhancement, Cdk2 N272: Cdk2 N272, additional mutation C177A; for Rate constant with Cdk2 N272C: Protein: Cdk2, cysteine position N272C, additional mutation C177A, in h^-1
T4 construct: poly-histidine; made in house; host or cells: E. coli
Experimental: as §1, §2, §3, §4, §5, §6

Cdk2(S181C) (C177A) = target: T5, Cdk2(S181C) (C177A) (Homo sapiens, UniProt P24941, C177A/S181C); test: Kinetic thiol consumption assay with Cdk2 mutant S181C; type: binding; set-up: key to Rate enhancement, Cdk2 S181C: rate constant with Cdk2 ÷ rate constant with model thiol (fold); conditions: additional mutation C177A; for Rate constant with Cdk2 S181C: Protein: Cdk2, cysteine position S181C, in h^-1
T5 construct: poly-histidine; made in house; host or cells: E. coli
Experimental: as §1, §2, §3, §4, §5, §6

[1] = target: T6, human cyclin-dependent kinase 2 (Cdk2) (Homo sapiens, UniProt P24941); test: Kinetic thiol consumption assay with wild type Cdk2 (C177); type: binding; set-up: key to Rate enhancement, Cdk2 WT: k(Cdk2) divided by k(model thiol); Rate constant with Cdk2 (k(Cdk2)): unit not given here; conditions: for Rate enhancement, Cdk2 WT: no additional mutations; for Rate constant with Cdk2 WT: Protein: Cdk2, cysteine position WT, in h^-1; for Rate constant with Cdk2 (k(Cdk2)): 500 μM ligand, 5 μM thiol, phosphate buffer pH 8; for k(Cdk2)/k(GSH) rate enhancement: model thiol glutathione
T6 construct: poly-histidine; made in house; host or cells: E. coli
Experimental: (§7) A library of 120 acrylamides was screened against a) human cyclin-dependent kinase 2 (Cdk2, which contains one surface exposed cysteine residue—C177), prepared by cloning cDNA into the pRSETA bacterial expression vector to generate a poly-histidine tagged Cdk2 fusion that was purified from E. coli using standard techniques, and b) a model thiol (specific details are given below). The structures of these 120 acrylamides are set out in Table 1, above.
as §1, §2, §3, §4

[2] = Kinetic thiol consumption assay with model thiol glutathione; type: physicochemical; set-up: Rate constant with glutathione (k(GSH)): unit not given here; conditions: for Rate constant with Glutathione: Protein: Glutathione, cysteine position NA, in h-1; for Rate constant with glutathione (k(GSH)): 500 μM ligand, 5 μM thiol, phosphate buffer pH 8
Experimental: as §7, §1, §2, §3, §4
The model thiol in Example 1 is glutathione (GSH). Hits were defined as fragments where kCdk2/kGSH>5.8 (empirically determined as 3 standard deviations over the mean).

Cdk2(S276C) (C177A) = target: T7, Cdk2(S276C) (C177A) (Homo sapiens, UniProt P24941, C177A/S276C); test: Kinetic thiol consumption assay with Cdk2 mutant S276C; type: binding; set-up: key to Rate enhancement, Cdk2 S276C: rate constant with Cdk2 ÷ rate constant with model thiol (fold); conditions: additional mutation C177A; for Rate constant with Cdk2 S276C: Protein: Cdk2, cysteine position S276C, in h^-1
T7 construct: poly-histidine; made in house; host or cells: E. coli
Experimental: as §1, §2, §3, §4, §5, §6

Cdk2(C177A, F80C) = target: T8, Cdk2(C177A, F80C) (Homo sapiens, UniProt P24941, C177A/F80C); test: Kinetic thiol consumption assay with Cdk2 mutant F80C, incl. kobs versus concentration (Kd, k2); type: binding; set-up: key to Rate enhancement, Cdk2 F80C: Cdk2 rate constant divided by model-thiol rate constant; conditions: additional mutation C177A; for Rate constant with Cdk2 F80C: Protein: Cdk2, cysteine position F80C, in h^-1
T8 construct: poly-histidine; made in house; host or cells: E. coli
Experimental: Therefore the assay can be used to calculate both k2 and Kd by experimentally determining kobs at a suitable range of ligand candidate concentrations. Typically Kd and k2 would then be determined by fitting a hyperbolic curve to a plot of kobs against ligand candidate concentration (FIG. 9).
as §1, §2, §3, §4, §5, §6
Rate constants were calculated as described in the methodology section of Examples 1 and 2.

SMILES	Rate enhancement, Cdk2 H71C (Cdk2(H71C) (C177A))	Rate constant with Cdk2 H71C (Cdk2(H71C) (C177A))	Rate enhancement, Cdk2 R122C (Cdk2(R122C) (C177A))	Rate constant with Cdk2 R122C (Cdk2(R122C) (C177A))	Rate enhancement, Cdk2 T182C (Cdk2(T182C) (C177A))	Rate constant with Cdk2 T182C (Cdk2(T182C) (C177A))	Rate enhancement, Cdk2 N272 (Cdk2(N272C) (C177A))	Rate constant with Cdk2 N272C (Cdk2(N272C) (C177A))	Rate enhancement, Cdk2 S181C (Cdk2(S181C) (C177A))	Rate constant with Cdk2 S181C (Cdk2(S181C) (C177A))	Rate enhancement, Cdk2 WT [1]	Rate constant with Cdk2 WT [1]	Rate enhancement, Cdk2 S276C (Cdk2(S276C) (C177A))	Rate constant with Cdk2 S276C (Cdk2(S276C) (C177A))	Rate enhancement, Cdk2 F80C (Cdk2(C177A, F80C))	Rate constant with Cdk2 F80C (Cdk2(C177A, F80C))	Rate constant with Cdk2 (k(Cdk2)) [1]	k(Cdk2)/k(GSH) rate enhancement [1]	Rate constant with Glutathione [2]	Rate constant with glutathione (k(GSH)) [2]
C#CCN1CCCN(C(=O)C=C)CC1 [CA-196]	0		0.7394	0.002681	2.74	0.009935	0.8296	0.003008	0.7592	0.002753	1.03	0.003735	0.4186	0.001518	0.4719	0.001711	0.00372	1.021	0.003626	0.00365
C=CC(=O)N1CCCCCC1C/C=C/c1ccccc1 (stereo not shown) [CA-096/146]	0.8889	0.01	0.7142	0.008035	10.32	0.1161	0.8907	0.01002	12.97	0.1459	0.3023	0.003401	1.276	0.01436	1.641	0.01846			0.01125	
C=CC(=O)N(C)C1C2CCOC2C1(C)C (stereo not shown) [CA-182]	0.6721	0.002021	1.368	0.004115	6.867	0.02065	1.56	0.004691	3.018	0.009074	1.268	0.003813	0.6169	0.001855	0		0.00381	1.254	0.003007	0.00304
C=CC(=O)N(CC(=O)N1CCCC1)CC1CCCO1 (stereo not shown) [CA-080]																	0.00195	0.2764		0.00706

Further lines, with some results ahead:

Rate enhancement, Cdk2 H71C (Cdk2(H71C) (C177A))	Rate constant with Cdk2 H71C (Cdk2(H71C) (C177A))	Rate enhancement, Cdk2 R122C (Cdk2(R122C) (C177A))	Rate constant with Cdk2 R122C (Cdk2(R122C) (C177A))	Rate enhancement, Cdk2 T182C (Cdk2(T182C) (C177A))	Rate constant with Cdk2 T182C (Cdk2(T182C) (C177A))	Rate enhancement, Cdk2 N272 (Cdk2(N272C) (C177A))	Rate constant with Cdk2 N272C (Cdk2(N272C) (C177A))	Rate enhancement, Cdk2 S181C (Cdk2(S181C) (C177A))	Rate constant with Cdk2 S181C (Cdk2(S181C) (C177A))	Rate enhancement, Cdk2 WT [1]	Rate constant with Cdk2 WT [1]	Rate enhancement, Cdk2 S276C (Cdk2(S276C) (C177A))	Rate constant with Cdk2 S276C (Cdk2(S276C) (C177A))	Rate enhancement, Cdk2 F80C (Cdk2(C177A, F80C))	Rate constant with Cdk2 F80C (Cdk2(C177A, F80C))	Rate constant with Cdk2 (k(Cdk2)) [1]	k(Cdk2)/k(GSH) rate enhancement [1]	SMILES	Rate constant with Glutathione [2]	Rate constant with glutathione (k(GSH)) [2]
0.3485	2.131	0.2211	1.352	1.394	8.524	0.3977	2.432	0.06554	0.4008	1.608	9.832	0.5145	3.146	0.0006656	0.00407			C=CS(=O)(=O)c1ccccc1 [EN001]	6.115	
0		0.304	0.0007379	0.5731	0.001391	0.3641	0.0008836	0.953	0.002313	1.986	0.004821	0.3126	0.0007587	0.5052	0.001226	0.00308	1.271	C=CC(=O)NC1(C(N)=O)CCCCC1 [EL-1170]	0.002427	0.00243
0		0		0.1321	0.005911	0.2037	0.009116	0.02434	0.001089	0		1.5439E−13	6.908E−15	4.64	0.2076			FC(F)(F)c1cc(Cl)ncc1Br [EN008]		
7.5652E−12	3.825E−14	0.1371	0.0006932	2.567	0.01298	1.133	0.00573	0.2957	0.001495	1.276	0.006451	0		49.31	0.2493			Cn1cc(S(=O)(=O)N2CCOCC2)cc1C(=O)NC(=O)CCl [EN002]		
5.4624E−12	3.52E−14	0.132	0.0008504	1.07	0.006898	0		0.6302	0.004061	0		0.921	0.005935	3.246	0.02092			CN(C#N)Cc1ccccc1 [EN009]		
0				0.9515	0.001386	0	0.001652			0		0		0.9144	0.001332			N#Cc1ccncn1 [EN007]		
